Laboratory results reported in paper PMC10999543, “Identification of kinase modulators as host-directed therapeutics against intracellular methicillin-resistant Staphylococcus aureus” (Frontiers in Cellular and Infection Microbiology, 2024).
Read-outs that look alike come from different tables or passages of the source.

Key:
intracellular MRSA = assay type: cell-based, Staphylococcus aureus; conditions: for %GFP+ rep 1 / z-scoreMRSA+ rep 1: replicate 1; for %GFP+ rep 2 / z-scoreMRSA+ rep 2: replicate 2; for %GFP+ rep 3 / z-scoreMRSA+ rep 3: replicate 3; for z-scoreMRSA+ mean: mean of 3 replicates
Summary of the method: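 HeLa cells were infected with GFP-expressing MRSA (mean MOI 6.8) for 1 h, treated with 30 µg/ml gentamicin for 15 min, then incubated overnight at 37°C with kinase inhibitors and 5 µg/ml gentamicin. Flow cytometry gave % GFP-positive cells, with cell count as viability. Hits were z-score ≤ -2 (infection) and ≥ -3 (count) versus DMSO.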

HeLa cells = assay: Compound screen by flow cytometry: HeLa cell count as surrogate readout of cell viability (z-scoreHeLa); assay type: cell-based, human; conditions: for cell count rep 1 / z-scoreHeLa rep 1: replicate 1; for cell count rep 2 / z-scoreHeLa rep 2: replicate 2; for cell count rep 3 / z-scoreHeLa rep 3: replicate 3; for z-scoreHeLa mean: mean of 3 replicates
Summary of the method: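 The viability surrogate was the count of fixed HeLa cells by flow cytometry, converted to z-scores against DMSO controls with values deviating two-fold excluded. Before counting, cells had been infected with MRSA for 1 h and cleared of extracellular bacteria with gentamicin. They were then exposed overnight to kinase inhibitors in triplicate.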

[1] = PKIS compound screen raw data, MRSA-infected HeLa cells
[2] = Yes/No: effect without cell death
[3] = compound screen, MRSA-infected HeLa cells
[4] = PKIS compound screen raw data, HeLa cell count
[5] = compound screen, HeLa cell count
[6] = PKIS compound screen, MRSA-infected HeLa cells
[7] = PKIS compound screen, Yes/No call (effect without cell death)
[8] = PKIS compound screen, Yes/No call on z-scoreMRSA+
[9] = PKIS compound screen, HeLa cell count
[10] = PKIS compound screen, Yes/No call on z-scoreHeLa
[11] = PKIS compounds raw data, MRSA-infected HeLa cells
[12] = PKIS compounds raw data, HeLa cell count
[13] = PKIS compound screen, Yes/No call

| SMILES | effect (intracellular MRSA; Yes/No call from z-scoreMRSA+) | hit (intracellular MRSA; [2]) | z-scoreMRSA+ mean (intracellular MRSA; [3]) | hit (intracellular MRSA; [7]) | %GFP+ rep 1 (intracellular MRSA; [11]) | %GFP+ rep 2 (intracellular MRSA; [11]) | %GFP+ rep 3 (intracellular MRSA; [11]) | cell count rep 1 (HeLa cells; [12]) | cell count rep 2 (HeLa cells; [12]) | cell count rep 3 (HeLa cells; [12]) | effect (intracellular MRSA; [13]) | z-scoreMRSA+ mean (intracellular MRSA; PKIS compound screen) | z-scoreMRSA+ rep 1 (intracellular MRSA; PKIS compound screen) | z-scoreMRSA+ rep 2 (intracellular MRSA; PKIS compound screen) | z-scoreMRSA+ rep 3 (intracellular MRSA; PKIS compound screen) | cell death (HeLa cells; [13]) | z-scoreHeLa mean (HeLa cells; PKIS compound screen) | z-scoreHeLa rep 1 (HeLa cells; PKIS compound screen) | z-scoreHeLa rep 2 (HeLa cells; PKIS compound screen) | z-scoreHeLa rep 3 (HeLa cells; PKIS compound screen) | other results |
| --- | --- | --- | --- | --- | --- | --- | --- | --- | --- | --- | --- | --- | --- | --- | --- | --- | --- | --- | --- | --- | --- |
| COc1cccc(NC(=O)NCCNc2ccnc(Nc3ccc(F)cc3)n2)c1 [GSK1379879A] | No | No | -0.35 |  |  |  |  |  |  |  |  |  |  |  |  |  |  |  |  |  | %GFP+ rep 1 (intracellular MRSA; [1]): 22.7%; %GFP+ rep 2 (intracellular MRSA; [1]): 22.0%; %GFP+ rep 3 (intracellular MRSA; [1]): 21.2%; z-scoreMRSA+ rep 1 (intracellular MRSA; [3]): -0.60; z-scoreMRSA+ rep 2 (intracellular MRSA; [3]): -0.15; z-scoreMRSA+ rep 3 (intracellular MRSA; [3]): -0.30; cell count rep 1 (HeLa cells; [4]): 4370; cell count rep 2 (HeLa cells; [4]): 3480; cell count rep 3 (HeLa cells; [4]): 4436; cell death (HeLa cells; Yes/No call from z-scoreHeLa): No; z-scoreHeLa mean (HeLa cells; [5]): -0.38; z-scoreHeLa rep 1 (HeLa cells; [5]): 0.0133; z-scoreHeLa rep 2 (HeLa cells; [5]): -0.63; z-scoreHeLa rep 3 (HeLa cells; [5]): -0.51 |
| Cc1ccc(NC(=O)c2ccc(Cl)cc2)cc1-c1ccc(C(=O)Nc2ccncc2)cc1 [GSK1398467A] |  |  |  | No |  |  |  |  |  |  |  |  |  |  |  |  |  |  |  |  | %GFP+ rep 1 (intracellular MRSA; [1]): 17.7%; %GFP+ rep 2 (intracellular MRSA; [1]): 18.1%; %GFP+ rep 3 (intracellular MRSA; [1]): 16.2%; z-scoreMRSA+ mean (intracellular MRSA; [6]): -0.42; z-scoreMRSA+ rep 1 (intracellular MRSA; [6]): -0.05; z-scoreMRSA+ rep 2 (intracellular MRSA; [6]): -0.13; z-scoreMRSA+ rep 3 (intracellular MRSA; [6]): -1.09; effect (intracellular MRSA; [8]): No; cell count rep 1 (HeLa cells; [4]): 10600; cell count rep 2 (HeLa cells; [4]): 12964; cell count rep 3 (HeLa cells; [4]): 20345; z-scoreHeLa mean (HeLa cells; [9]): -2.91; z-scoreHeLa rep 1 (HeLa cells; [9]): -1.44; z-scoreHeLa rep 2 (HeLa cells; [9]): -4.07; z-scoreHeLa rep 3 (HeLa cells; [9]): -3.21; cell death (HeLa cells; [10]): No |
| Cc1ccc2c(c1)C(=NNc1ccc(S(N)(=O)=O)cc1)C(=O)N2 [GW275944X] | No | No | -0.10 |  | 14.2% | 14.3% | 12.8% | 3417 | 4418 | 6627 |  |  |  |  |  |  |  |  |  |  | z-scoreMRSA+ rep 1 (intracellular MRSA; [3]): 0.33; z-scoreMRSA+ rep 2 (intracellular MRSA; [3]): 0.27; z-scoreMRSA+ rep 3 (intracellular MRSA; [3]): -0.91; cell death (HeLa cells; Yes/No call from z-scoreHeLa): No; z-scoreHeLa mean (HeLa cells; [5]): -0.43; z-scoreHeLa rep 1 (HeLa cells; [5]): -1.23; z-scoreHeLa rep 2 (HeLa cells; [5]): 0.11; z-scoreHeLa rep 3 (HeLa cells; [5]): -0.16 |
| Cc1ccc(NC(=O)Nc2ccccc2)cc1-c1ccc(C(=O)Nc2ccncc2)cc1 [GSK1398471A] |  |  |  | No | 36.2% | 40.5% | 37.6% | 1939 | 2675 | 2624 | No | 2.16 | 1.78 | 2.78 | 1.92 | No | -2.19 | -2.47 | -2.21 | -1.88 |  |
| Cc1cn2c(=O)cc(N3CCOCC3)nc2n1Cc1cccc(Cl)c1Cl [GSK2334006A] |  |  |  | No | 23.2% | 20.8% | 27.2% | 5750 | 5179 | 5208 | No | -0.59 | -0.75 | -1.01 | -0.0127 | No | -0.32 | -0.18 | -0.55 | -0.25 | %GFP+ rep 1 (intracellular MRSA; [1]): 10.9%; %GFP+ rep 2 (intracellular MRSA; [1]): 13.1%; %GFP+ rep 3 (intracellular MRSA; [1]): 15.5%; z-scoreMRSA+ mean (intracellular MRSA; [6]): -1.80; z-scoreMRSA+ rep 1 (intracellular MRSA; [6]): -2.11; z-scoreMRSA+ rep 2 (intracellular MRSA; [6]): -1.72; z-scoreMRSA+ rep 3 (intracellular MRSA; [6]): -1.57; effect (intracellular MRSA; [8]): No; cell count rep 1 (HeLa cells; [4]): 38408; cell count rep 2 (HeLa cells; [4]): 33023; cell count rep 3 (HeLa cells; [4]): 28416; z-scoreHeLa mean (HeLa cells; [9]): 1.52; z-scoreHeLa rep 1 (HeLa cells; [9]): 1.39; z-scoreHeLa rep 2 (HeLa cells; [9]): 1.33; z-scoreHeLa rep 3 (HeLa cells; [9]): 1.85; cell death (HeLa cells; [10]): No |
| CS(=O)(=O)CCNCc1nc(-c2ccc3ncnc(Nc4ccc(F)c(Cl)c4)c3c2)cs1 [GW461104A] | No | No | -0.31 |  |  |  |  |  |  |  |  |  |  |  |  |  |  |  |  |  | %GFP+ rep 1 (intracellular MRSA; [1]): 24.3%; %GFP+ rep 2 (intracellular MRSA; [1]): 20.7%; %GFP+ rep 3 (intracellular MRSA; [1]): 21.4%; z-scoreMRSA+ rep 1 (intracellular MRSA; [3]): -0.23; z-scoreMRSA+ rep 2 (intracellular MRSA; [3]): -0.46; z-scoreMRSA+ rep 3 (intracellular MRSA; [3]): -0.24; cell count rep 1 (HeLa cells; [4]): 1413; cell count rep 2 (HeLa cells; [4]): 957; cell count rep 3 (HeLa cells; [4]): 819; cell death (HeLa cells; Yes/No call from z-scoreHeLa): No; z-scoreHeLa mean (HeLa cells; [5]): -2.50; z-scoreHeLa rep 1 (HeLa cells; [5]): -2.12; z-scoreHeLa rep 2 (HeLa cells; [5]): -2.57; z-scoreHeLa rep 3 (HeLa cells; [5]): -2.79 |
| Nc1ncc(-c2cccc(S(N)(=O)=O)c2)c2scc(-c3ccc(F)c(Cl)c3)c12 [GW856804X] | No | No | -0.70 |  | 11.3% | 12.3% | 12.2% | 4238 | 7246 | 7870 |  |  |  |  |  |  |  |  |  |  | z-scoreMRSA+ rep 1 (intracellular MRSA; [3]): -0.60; z-scoreMRSA+ rep 2 (intracellular MRSA; [3]): -0.40; z-scoreMRSA+ rep 3 (intracellular MRSA; [3]): -1.09; cell death (HeLa cells; Yes/No call from z-scoreHeLa): No; z-scoreHeLa mean (HeLa cells; [5]): 0.73; z-scoreHeLa rep 1 (HeLa cells; [5]): -0.49; z-scoreHeLa rep 2 (HeLa cells; [5]): 2.25; z-scoreHeLa rep 3 (HeLa cells; [5]): 0.43 |
| COc1cc(N2CCN(C(C)C)CC2)ccc1Nc1nc(Nc2ccc(F)cc2C(N)=O)c2cc[nH]c2n1 [GSK1220512A] |  |  |  | No | 18.8% | 17.7% | 19.7% | 3725 | 3908 | 5195 | No | 1.45 | 1.80 | 1.41 | 1.13 | No | -0.69 | -0.95 | -0.27 | -0.85 |  |
| COC(=O)c1ccc2c(c1)C(=Cc1cc(Br)c(O)c(Br)c1)C(=O)N2 [GW405841X] |  |  |  | No | 13.2% | 13.6% | 14.0% | 5478 | 7140 | 10804 | No | -0.17 | 0.00934 | 0.0349 | -0.56 | No | 1.55 | 0.63 | 2.17 | 1.84 |  |
| COc1ccc2ncnc(Nc3ccc(OCc4ccccc4)cc3)c2c1 [GI261520A] |  |  |  | No | 11.8% | 13.4% | 11.4% | 6115 | 6030 | 12782 | No | -0.60 | -0.44 | -0.0319 | -1.33 | No | 1.78 | 1.21 | 1.33 | 2.78 |  |
| COc1cc(Nc2ncc(-c3ccccc3)o2)cc(OC)c1OC [GW627512B] | No | No | -0.71 |  | 11.0% | 12.1% | 12.6% | 2360 | 2993 | 4653 |  |  |  |  |  |  |  |  |  |  | z-scoreMRSA+ rep 1 (intracellular MRSA; [3]): -0.70; z-scoreMRSA+ rep 2 (intracellular MRSA; [3]): -0.47; z-scoreMRSA+ rep 3 (intracellular MRSA; [3]): -0.97; cell death (HeLa cells; Yes/No call from z-scoreHeLa): No; z-scoreHeLa mean (HeLa cells; [5]): -1.42; z-scoreHeLa rep 1 (HeLa cells; [5]): -2.18; z-scoreHeLa rep 2 (HeLa cells; [5]): -0.96; z-scoreHeLa rep 3 (HeLa cells; [5]): -1.10 |
| O=C(c1ccc(-c2cc(-c3c[nH]nc3-c3ccccn3)ccn2)cc1)N1CCOCC1 [GW812171X] |  |  |  | No | 25.0% | 25.6% | 27.6% | 9409 | 7175 | 6822 | No | -0.14 | -0.40 | -0.08 | 0.06 | No | 1.19 | 2.02 | 0.77 | 0.78 |  |
